Experimental findings from patent US6407248B1, “α-unsaturated amines, their production and use” (Takeda Chemical Industries, Ltd., priority 1987, dated 2002) are described below.

Structures are written as SMILES.

System in one series: not given
Experiment: not given
Conditions: not given
A word on the melting point: it is the temperature, or range, at which the solid turns liquid. `CSC(=C[N+](=O)[O-])NCc1cccnc1` returned a melting point of 129 to 130 °C.
Still for that read-out and setting: the value for `O=[N+]([O-])C=C(NCc1cccnc1)NCc1cccnc1` was 141 to 143 °C.
Regarding `NC(=C[N+](=O)[O-])NCc1cccnc1`, the melting point is 177 to 178 °C (dec.).
The same measure, in the same setting: to `CCCSCCNC(=C[N+](=O)[O-])NCc1cccnc1` belongs 93 to 94 °C; to `O=[N+]([O-])C=C(NCCO)NCc1cccnc1`, 161 to 163 °C; to `COC(CNC(=C[N+](=O)[O-])NCc1cccnc1)OC`, 96 to 98 °C.
`O=[N+]([O-])C=C(NCc1cccnc1)NCC(F)(F)F`: the melting point lay within 164 to 165 °C.
With `O=[N+]([O-])C=C(NCc1cccnc1)N1CCOCC1`, the melting point lay in the range of 102 to 103 °C.
Still for that read-out and setting: the value for `CC(C)NC(=C[N+](=O)[O-])NCc1cccnc1` was 148 to 150 °C; that for `CCCCNC(=C[N+](=O)[O-])NCc1cccnc1` was 110 to 112 °C.
Still for that read-out and setting: to `CCCCCNC(=C[N+](=O)[O-])NCc1cccnc1` belongs 97 to 98 °C; to `O=[N+]([O-])C=C(NCc1cccnc1)Nc1ccccc1`, 217 to 218 °C.

The next series concerns Brown Planthoppers (Nilaparvata lugens). The experiment in a line: Effect against brown planthoppers (foliar spray on rice seedlings). It counts as in vivo. As to conditions: Nilaparvata lugens, foliar, 168 h, read-out: % Mortality after 7 days. Here is the method:
Effect Against Brown Planthoppers (Nilaparvata lugens)
An emulsifiable concentrate of the compound of the invention, prepared in the same manner as Example 112 below, was diluted with water to a concentration of 500 ppm and sprayed over the stems and leaves of rice seedlings in the 2-leaf stage at the rate of 10 ml per paper pot. Water was put in test tubes and the treated rice seedlings were placed therein. Then, 10 brown planthopper larvae were released in each tube, which was then capped with an aluminum cap. The test tubes were maintained in an incubator at 25° C. and the dead insects were counted 7 days after release. The % mortality was calculated using the following formula. [formula]
Broadly, the mortality is the share of the test organisms that died. Turning to `CCN(Cc1cnc(Cl)s1)C(=C[N+](=O)[O-])N(C)C=O` [Compound 122, 1-[N-(2-Chloro-5-thiazolylmethyl)-N-ethyl) amino-1-(N-formyl-N-methyl)amino-2-nitroethylene], the mortality at 500 µg/mL turned out to be 100%.
Still for that read-out and setting: to `CNC(=C[N+](=O)[O-])N(C=O)Cc1cnc(Cl)s1` [Compound 124, 1-[N-(2-chloro-5-thiazolylmethyl)-N-formyl]amino-1-methylamino-2-nitroethylene] belongs 100%; to `CN(C=O)C(=C[N+](=O)[O-])N(C)Cc1ccc(Br)nc1` [Compound 125, 1-[N-(6-Bromo-3-pyridylmethyl)-N-methyl]amino-1-(N-formyl-N-methyl)amino-2-nitroethylene], 100%; to `CCN(Cc1ccc(Br)nc1)C(=C[N+](=O)[O-])N(C)C=O` [Compound 126, 1-[N-(6-Bromo-3-pyridylmethyl)-N-ethyl]amino-1-(N-formyl-N-methyl)amino-2-nitroethylene], 100%.
As to `CN(C)C(=C[N+](=O)[O-])NCc1ccc(Br)nc1` [Compound 127, 1-N-(6-Bromo-3-pyridylmethyl)amino-1-dimethylamino-2-nitroethylene], the mortality at 500 µg/mL came out at 100%.
Still for that read-out and setting: to `CN(C)C(=C[N+](=O)[O-])N(C=O)Cc1ccc(Br)nc1` [Compound 128, 1-[N-(6-Bromo-3-pyridylmethyl)-N-formyl]amino-1-dimethylamino-2-nitroethylene] belongs 100%.
Same read-out and setting: to `CN(Cc1ccc(Br)nc1)C(N)=C[N+](=O)[O-]` [Compound 129, 1-Amino-1-[N-(6-bromo-3-pyridylmethyl)-N-methyl]amino-2-nitroethylene] belongs 100%; to `CN(C)C(=C[N+](=O)[O-])N(C=O)Cc1cnc(Cl)s1` [Compound 130, 1-[N-(2-Chloro-5-thiazolylmethyl)-N-formyl]amino-1-dimethylamino-2-nitroethylene], 100%; to `CNC(=C[N+](=O)[O-])N(Cc1ccc(Cl)nc1)CC(F)(F)F` [Compound 131, 1-[N-(6-Chloro-3-pyridylmethyl)-N-(2,2,2-trifluoroethyl)]amino-1-methylamino-2-nitroethylene], 100%.
